Results as given in publication PMC6152416, “Pharmacological and Toxicological Screening of Novel Benzimidazole-Morpholine Derivatives as Dual-Acting Inhibitors” (Molecules : A Journal of Synthetic Chemistry and Natural …, 2017).
Values after ≈ are worked out from the molar mass of the structure shown.

Experiments:
[1] = molecular target: T1, COX-1 (Ovis aries, UniProt P05979); assay: Fluorimetric COX-1 inhibition screening kit (BioVision); format: biochemical; conditions: for COX-1 inhibition at the initial concentrations: 10^−3 M and 10^−4 M; for inhibition at 10 µM: 10^−5 M; for inhibition at 1 µM: 10^−6 M; for inhibition at 0.1 µM: 10^−7 M; for inhibition at 0.01 µM: 10^−8 M; for inhibition at 0.001 µM: 10^−9 M
T1 construct: purchased BioVision (Milpitas, CA, USA) K548-100
Protocol: Inhibitory potency of the compounds on COX-1 and COX-2 enzymes was determined by using fluorimetric COX-1 and COX-2 inhibition screening kits from BioVision (Milpitas, CA, USA). The experimental protocol as described in the guides provided by the supplier was followed. All of the pipetting were performed using a robotized system to increase speed, accuracy and precision. Fluorescence intensities of the samples were kinetically measured at 25 °C for 5–10 min by monitoring emissions at 587 nm after excitation at 535 nm. Two appropriate points (T1 and T2) in the linear range of the plot were chosen and the corresponding fluorescence values (RFU1 and RFU2) were obtained. The slope for all samples including Enzyme Control (EC) was calculated by dividing the net ΔRFU (RFU2 − RFU1) values by the time ΔT (T2 − T1). Percentage of relative inhibition was calculated by using the following equation:% Relative inhibition = (Slope of EC − Slope of S/Slope of EC) × 100 where S is the term representing the tested compound [51, 52]. […] The IC50 values were calculated using the plots of the enzyme activity against concentrations by applying regression analyses.

[2] = Ames MPF genotoxicity assay; format: cell-based, Salmonella typhimurium; conditions: Salmonella typhimurium; TA100, with/without S9, each concentration level; read-out: fold inductions over baseline
Protocol: The genotoxicity of selected compounds (2b, 2j, 2m) was determined by Ames assay using Ames MPF 98/100 mutagenicity assay sample kit (Xenometrix AG, Allschwil, Switzerland) as previously described elsewhere. Salmonella typhimurium strains, TA98 (frameshift mutations) and TA100 (base-pair substitutions) were used in the assay. The concentration of the compounds was between 16 and 5000 μg/mL, in accordance with the guideline. Compounds were prepared in six different concentrations (5.0, 2.5, 1.25, 0.625, 0.3125, 0.156 mg/mL) in DMSO. Mutagenic potential was determined in the absence or presence of Aroclor™-1254 induced male Sprague–Dawley rat liver microsomal enzyme (S9) mix (Xenometrix AG). Positive controls without S9 mix were 2-nitrofluorene (2.0 μg/mL) and 4-nitroquinoline N-oxide (0.1 μg/mL), whereas 1.0 μg/mL and 2.5 μg/mL of 2-aminoanthracene solutions were used as positive controls with S9 against TA98 and TA100, respectively. Solvent control was prepared with 4% DMSO. The end of an experiment was determined by the change of the indicator medium colour to yellow, which was originating from the decrease of pH due to revertant bacteria. Yellow wells were counted as positive, and compared with the negative control. Fold induction over the negative control and fold induction over the baseline were calculated (Fold induction over the negative control is accepted as the ratio of the mean number of positive wells for the dose concentration divided by the mean number of positive wells for the zero dose (negative) control. Fold induction over the baseline is accepted as the ratio of the mean number of positive wells for the dose concentration divided by zero dose baseline. The zero-dose baseline is obtained by adding one standard deviation to the mean number of positive wells of the zero dose control. If the baseline is less than 1, the value is set to 1 for calculation).
Mutagenicity was determined according to the criteria reported previously. For a baseline value of ≤3, significant increases between 2 and 3-fold of the baseline were classified as weak mutagen, and increases ≥3-fold of the baseline were classified as mutagen. […] As a rule, at least two adjacent doses with significant increases or a significant increase at the highest dose level should be observed for a mutagenic compound. All of the doses were compared according to Student’s t-test at p < 0.05 for statistical significance.

[3] = test system: Pseudomona aeuroginosa ATCC 27853; assay: Antimicrobial broth microdilution (CLSI M07-A9); format: cell-based; conditions: for fold lower MIC50 / greater activity than chloramphenicol: Pseudomona aeuroginosa ATCC 27853; for MIC50: Pseudomona aeuroginosa [sic] ATCC 27853
Protocol: Microbiological studies were performed according to CLSI reference M07-A9 broth microdilution method for bacterial strains and EUCAST definitive method EDef 7.1 for Candida species. Synthesized compounds were tested for their in vitro growth inhibitory activity against Escherichia coli ATCC 35218, Escherichia coli ATCC 25922, Staphylococcus aureus, ATCC 25923, Pseudomona aeuroginosa ATCC 27853, Enterococcus faecalis ATCC29212, Klebsiella pneumoniae ATCC700603 Listeria monocytogenes ATCC7644, Candida albicans ATCC90028, Candida glabrata ATCC 90030, Candida krusei ATCC 6258, Candida parapsilosis ATCC 22019.
The cultures were obtained from Mueller-Hinton broth (Difco) for the bacterial strains and the yeasts were maintained in Roswell Park Memorial Institute (RPMI) medium, after an overnight incubation at 37 °C for both. The inocula of the test microorganisms were adjusted to match an equivalent turbidity of a 0.5 McFarland standard, which was determined using a spectrophotometer; the final inoculum size was determined to be 0.5–2.5 × 10^5 cfu/mL for antibacterial and antifungal assays. The tests were carried out for both mediums at pH = 7 and two-fold serial dilutions were applied. The last well on the microplates, which was containing only the inoculated broth, was kept as control, and the last well with no growth of microorganism was recorded to represent the minimum inhibitory concentration (MIC50) in μg/mL. For both of the antibacterial and antifungal assays, the test compounds and reference drugs were firstly dissolved in DMSO, and further dilutions were performed to the desired concentrations of 1000, 500, 250, 125, 62.5, 31.25, 15.6, 7.8, 3.9 and 1.95 μg/mL using Mueller–Hinton broth and RPMI medium. The completed plates were incubated for 24 h, and at the end of the incubation, resazurin (20 µg/mL) was added into each well to control the growth in the wells. Final plates including microorganism strains were incubated for 2 h. MIC50 values were determined using microplate reader at […] wavelengths; MIC50 readings were performed twice for entire compounds. Chloramphenicol and ketoconazole were used as reference drugs.

T1 sequence (P05979 25-600): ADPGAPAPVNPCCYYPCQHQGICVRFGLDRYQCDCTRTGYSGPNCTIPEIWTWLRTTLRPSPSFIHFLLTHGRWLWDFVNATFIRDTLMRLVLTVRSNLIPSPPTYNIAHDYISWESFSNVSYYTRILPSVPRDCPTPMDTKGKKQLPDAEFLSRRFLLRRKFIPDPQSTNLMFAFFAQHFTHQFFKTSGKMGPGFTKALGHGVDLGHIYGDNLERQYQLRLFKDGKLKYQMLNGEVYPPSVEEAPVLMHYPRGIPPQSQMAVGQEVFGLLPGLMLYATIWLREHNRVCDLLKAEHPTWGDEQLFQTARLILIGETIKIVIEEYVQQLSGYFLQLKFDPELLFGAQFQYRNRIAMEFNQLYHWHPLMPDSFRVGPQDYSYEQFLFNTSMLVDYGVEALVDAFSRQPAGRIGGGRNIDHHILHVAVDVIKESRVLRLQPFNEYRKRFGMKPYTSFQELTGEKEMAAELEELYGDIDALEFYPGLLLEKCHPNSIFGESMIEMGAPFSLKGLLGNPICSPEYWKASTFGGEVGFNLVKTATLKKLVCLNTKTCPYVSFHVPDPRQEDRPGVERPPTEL

SMILES | IC50 [1] [µM] | COX-1 Inhibition (%) ([1]; 10^-3 M) | COX-1 Inhibition (%) ([1]; 10^-4 M) | COX-1 inhibition at the initial concentrations [1] | inhibition at 10 µM [1] [%] | inhibition at 1 µM [1] [%] | inhibition at 0.1 µM [1] [%] | inhibition at 0.01 µM [1] [%] | inhibition at 0.001 µM [1] [%] | fold induction [2] | fold lower MIC50 / greater activity than chloramphenicol [3] [fold] | MIC50 [3] [µg/mL]
FC(F)(F)Oc1ccc(-c2nc3ccccc3n2CCN2CCOCC2)cc1 [Compound 2m, 2-(4-Trifluoromethoxyphenyl)-1-[2-(morpholin-4-yl)ethyl]-1H-benzimidazole] | 21.9 | 79.15 | 78.61 | more than 50% | 47.4 ± 1.16 | 42 ± 0.88 | 36.6 ± 0.92 | 26.2 ± 0.79 | 20 ± 0.62 | < 1.5 | 2 | 125 (≈ 319 µM)
Clc1ccc(-c2nc3ccccc3n2CCN2CCOCC2)cc1 [Compound 2c, 2-(4-Chlorophenyl)-1-[2-(morpholin-4-yl)ethyl]-1H-benzimidazole] | – | 24.55 | 22.15 | – | – | – | – | – | – | – | 2 | 125 (≈ 366 µM)
CC(C)c1ccc(-c2nc3ccccc3n2CCN2CCOCC2)cc1 [Compound 2e, 2-(4-Isopropylphenyl)-1-[2-(morpholin-4-yl)ethyl]-1H-benzimidazole] | – | 26.47 | 19.88 | – | – | – | – | – | – | – | – | 250 (≈ 715 µM)
COc1ccc(-c2nc3ccccc3n2CCN2CCOCC2)cc1 [Compound 2b, 2-(4-Methoxyphenyl)-1-[2-(morpholin-4-yl)ethyl]-1H-benzimidazole] | 8.1 | 90.12 | 87.62 | more than 50% | 59.4 ± 1.24 | 42.8 ± 1.02 | 37.1 ± 0.92 | 26.8 ± 0.87 | 19.6 ± 0.76 | < 1.5 | 16 | 0.0156 (≈ 0.0462 µM)
CCOc1ccc(-c2nc3ccccc3n2CCN2CCOCC2)cc1 [Compound 2j, 2-(4-Ethoxyphenyl)-1-[2-(morpholin-4-yl)ethyl]-1H-benzimidazole] | 14.2 | 85.07 | 88.68 | more than 50% | 51.4 ± 1.15 | 44.5 ± 1.07 | 37.7 ± 0.76 | 27.5 ± 0.82 | 23.4 ± 0.61 | – | – | –
